From patent US7744867B2, “PTPase inhibitors and method of using same” (The Cleveland Clinic Foundation, priority 2001, dated 2010)

Key:
[1] = biological target: T1, intracellular Flag-PRL-2 (Homo sapiens, UniProt Q12974); assay: PTPase activity of anti-Flag immunocomplexes from NIH3T3 transfectants; format: cell-based
T1 construct: expressed in transfected cells; host or cells: NIH3T3
T1 sequence (Q12974 1-167): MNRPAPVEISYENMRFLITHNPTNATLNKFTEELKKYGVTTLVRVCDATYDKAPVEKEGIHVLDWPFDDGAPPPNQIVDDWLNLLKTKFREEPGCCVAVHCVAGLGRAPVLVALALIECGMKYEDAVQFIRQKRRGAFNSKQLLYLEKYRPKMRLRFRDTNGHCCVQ
Procedure: An expression construct of Flag-tagged PRL-1 or control vector was transfected into NIH3T3 cells which were then treated without or with sodium stibogluconate and used for immunoprecipitation assays with a monoclonal anti-Flag antibody. The immunocomplexes were analyzed by SDS-PAGE/Western blotting and PTPase assays. A Flag-tagged protein with a molecular weight approximately 22 kDa as expected for Flag-PRL-1 was detected in the immunocomplexes from untreated or sodium stibogluconate -treated Flag-PRL-1 transfectants but not in those from the control cells (FIG. 6A).
Flag-PRL-2 transfectants were briefly treated with sodium stibogluconate for 5 minutes, washed to remove cell-free drug and then incubated for various times prior to termination by cell lysis. Anti-Flag immunocomplexes from the cells were analyzed by SDS-PAGE/Western blotting and PTPase assays. The amounts of Flag-PRL-2 proteins in the immunocomplexes were at similar levels as quantified by probing with an anti-Flag antibody. […] PTPase activity of the immunocomplexes from cells incubated for 24 hours was 78% of the untreated cells.
Glucatime-induced inactivation of intracellular PRL-2 lasts more than 24 hours. NIH3T3 stable transfectant of Flag-tagged PRL-2 was treated with glucatime for 5 minutes, washed to remove cell free drug and then incubated for various times prior to termination by lysing the cells in lysis buffer. Flag-tagged PRL-2 was immunoprecipitated from the cell lysates using a monoclonal anti-Flag antibody. The amounts of Flag-tagged PRL-2 in the immunocomplexes were quantified by SDS-PAGE/Western blotting with the anti-Flag antibody (A). Activities of the immunocomplexes in dephosphorylating a synthetic phosphotyrosine peptide were determined by in vitro PTPase assays (B).

[2] = system: Baf3 cells; assay: IL-3-induced proliferation of Baf3 cells; format: cell-based, murine; conditions: at 1,000 μg/ml
Procedure: The murine hematopoietic cell line Baf3 was maintained in RPMI 1640 medium supplemented with 10% fetal calf serum (FCS) and murine IL-3 (20 units/ml) as described previously. Human myeloid cell line TF-1 was maintained in RPMI 1640 supplemented with 10% FCS and 40 ng/ml of recombinant human GM-CSF as described previously. For cell proliferation assays, cells were washed in 10% FCS medium twice, resuspended in 10% FCS medium, incubated at 37° C. for 16 hours and then cultured at 37° C. in 10% FCS medium containing various amounts of cytokines, sodium stibogluconate, or PSbT for 3-6 days as indicated. The cell numbers in proliferation assays were determined by an MTT assay or by microscopic cell counting as indicated.

[3] = Tolerability in nude mice (viability, body weight, appearance); format: in vivo
Procedure: The effective dosage of sodium stibogluconate against WM9 and DU145 xenografts is well tolerated in nude mice. […] Thus dosage is much higher than the standard dose for Leishmaniasis (20 mg Sb/kg, daily). As an initial step to assess the toxicity of such a high dosage of sodium stibogluconate in nude mice, its effect on the viability and body weights of WM9 xenografts nude mice during the 25 day period of the study was determined.

[4] = system: WM9 human melanoma xenografts; assay: Xenografts of human melanoma in nude mice, tumor volume; format: in vivo; conditions: day 25, IFNα 500,000 U s.c. daily, sodium stibogluconate 12 mg Sb s.c. daily
From the text: FIG. 11 illustrates that sodium stibogluconate appears to synergize with IFNα against WM9 human melanoma tumors in nude mice. IFNα or both on the growth of xenografts of human melanoma cell line WM9 and human prostate carcinoma cell line DU-145 in athymic nude mice. Nude mice of 4 weeks old were inoculated subcutaneously (s.c.) with WM9 human melanoma cells (3×10^6 cells/site) (A) or DU-145 human prostate cancer cells (2×10^6 cells/site) (B) on day 0. Starting on day 2, the mice were subjected to no treatment (Control) or treatment with IFNα (500,000 U, s.c., daily), sodium stibogluconate (12 mg, s.c., daily) or both (Combo). Tumor volume in the nude mice (4 mice/group, 2 tumors/mouse) was measured on the days as indicated. Tumor volume was calculated by the equation: (length×width^2)/2 to compare tumor growth rates. All mice survived by the end of the experiment. […]
For each of the cell lines, each of 16 mice received subcutaneous injection at the chest area of 3×10^6 cells/site (WM9) or 2×10^6 cells/site (DU145), two sites/mouse, on day 0. […] Tumor size was measured with a caliper to determine the two perpendicular diameters of each tumor. Tumor volume was calculated using the method of the NCI (length×width^2 in millimeters/2=volume in cubic millimeters). […]

[5] = system: Melanomas; conditions: melanoma patients; cited from earlier work
[6] = system: 5637 cells (Blader carcinoma); assay: Growth inhibition of human tumor cell lines; format: cell-based; conditions: SS 12.5 μg/ml, IFNα 1,000 u/ml, alone or combined
[7] = system: MDA435 cells (Breast cancer); assay: Growth inhibition of human tumor cell lines; format: cell-based; conditions: SS 12.5 μg/ml, IFNα 1,000 u/ml, alone or combined

Row | Compound | PTPase activity of Flag-PRL-2 immunocomplexes from treated transfectants ([1]; treated 5 min) | duration of intracellular PRL-2 inactivation ([1]; treated 5 minutes, washed to remove cell free drug) | IL-3-induced Baf3 growth [2] | tolerability ([3]; 12 mg Sb daily (440 mg Sb/kg daily), s.c., 25 day study) | daily dose that mice could tolerate ([3]; pilot study, approximately 700-800 mg Sb/kg) [mg Sb] | average tumor volume, of the control group [4] | response rates [5] [%] | % of growth inhibition by day 6 (±s.d.) [6] | % of growth inhibition by day 6 (±s.d.) [7]
1 | O.O.O.O.O.O.O.O.O.O=C([O-])[C@@H]1[O][Sb]2([O-])([O][Sb]34([OH])[O][C@H]([C@H](O)CO)[C@H]([O]3)[C@H](C(=O)[O-])[O]4)[O][C@H]([C@H](O)CO)[C@@H]1[O]2.[Na+].[Na+].[Na+] [sodium stibogluconate] | lack of PTPase activity | at least 24 hours | suppressed | well tolerated with no serious side effect | 20 |  |  |  | 
2 | IFNα |  |  |  |  |  | approximately 40% | 15 | 28 (17) % | 29 (15) %
